Experimental data from paper PMC8887546, “Design and Synthesis of Brain Penetrant Glycopeptide Analogues of PACAP With Neuroprotective Potential for Traumatic Brain Injury and Parkinsonism” (Frontiers in drug discovery, 2022).

How the values were obtained:
Format in all cases: cell-based
human PAC1 receptor = target: T1, human PAC1 receptor (Homo sapiens, UniProt P41586); test: cAMP stimulation in CHO cells expressing PAC1; conditions: for Emax: CHO
T1 construct: expressed in transfected cells; host or cells: CHO cells (G418 selection)
T1 sequence (P41586 21-468): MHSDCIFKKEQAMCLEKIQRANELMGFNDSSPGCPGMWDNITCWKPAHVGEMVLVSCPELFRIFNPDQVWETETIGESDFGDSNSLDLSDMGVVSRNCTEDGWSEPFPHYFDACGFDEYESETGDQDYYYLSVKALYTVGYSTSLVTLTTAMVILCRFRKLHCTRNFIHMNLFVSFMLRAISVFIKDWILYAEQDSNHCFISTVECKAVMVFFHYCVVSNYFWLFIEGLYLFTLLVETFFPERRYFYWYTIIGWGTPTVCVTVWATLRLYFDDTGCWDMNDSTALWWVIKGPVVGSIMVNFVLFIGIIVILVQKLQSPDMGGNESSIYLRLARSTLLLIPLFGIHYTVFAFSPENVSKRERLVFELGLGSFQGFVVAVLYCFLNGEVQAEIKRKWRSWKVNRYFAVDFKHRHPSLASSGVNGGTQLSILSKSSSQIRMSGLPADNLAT
Summary of the method: (§1)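 Serum-starved CHO cells expressing human receptors were pre-treated 20 min with 500 μM IBMX, then exposed to agonist concentration curves for 10 min in 500 μM IBMX. cAMP quantified by competition with bovine PKA and ^3H-cAMP (1 h, room temperature), scintillation read.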

human VPAC1 receptor = target: T2, human VPAC1 receptor (Homo sapiens, UniProt P32241); test: cAMP stimulation in CHO cells expressing VPAC1; conditions: for Emax: CHO, read-out: VPAC1 Emax; for Receptor selectivity ratio VPAC1/PAC1: ratio of cAMP EC50 values; for EC50: read-out: VPAC1 EC50
T2 construct: expressed in transfected cells; host or cells: CHO cells (G418 selection)
T2 sequence (P32241 31-457): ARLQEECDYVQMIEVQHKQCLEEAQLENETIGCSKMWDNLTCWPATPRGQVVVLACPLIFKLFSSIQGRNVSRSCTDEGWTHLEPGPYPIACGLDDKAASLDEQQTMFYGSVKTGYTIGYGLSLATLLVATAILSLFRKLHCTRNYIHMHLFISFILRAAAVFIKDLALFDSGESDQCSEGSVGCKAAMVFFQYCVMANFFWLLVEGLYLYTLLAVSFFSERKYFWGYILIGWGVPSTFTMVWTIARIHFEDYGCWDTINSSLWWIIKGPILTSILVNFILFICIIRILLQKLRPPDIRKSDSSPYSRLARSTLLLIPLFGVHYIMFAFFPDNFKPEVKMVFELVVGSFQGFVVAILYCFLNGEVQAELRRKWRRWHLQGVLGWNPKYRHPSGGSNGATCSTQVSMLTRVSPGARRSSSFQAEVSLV

human VPAC2 receptor = target: T3, human VPAC2 receptor (Homo sapiens, UniProt P41587); test: cAMP stimulation in CHO cells expressing VPAC2; conditions: for Emax: CHO; for Receptor selectivity ratio VPAC2/PAC1 / Receptor selectivity ratio VPAC2/VPAC1: ratio of cAMP EC50 values
T3 construct: expressed in transfected cells; host or cells: CHO cells (G418 selection)
T3 sequence (P41587 24-438): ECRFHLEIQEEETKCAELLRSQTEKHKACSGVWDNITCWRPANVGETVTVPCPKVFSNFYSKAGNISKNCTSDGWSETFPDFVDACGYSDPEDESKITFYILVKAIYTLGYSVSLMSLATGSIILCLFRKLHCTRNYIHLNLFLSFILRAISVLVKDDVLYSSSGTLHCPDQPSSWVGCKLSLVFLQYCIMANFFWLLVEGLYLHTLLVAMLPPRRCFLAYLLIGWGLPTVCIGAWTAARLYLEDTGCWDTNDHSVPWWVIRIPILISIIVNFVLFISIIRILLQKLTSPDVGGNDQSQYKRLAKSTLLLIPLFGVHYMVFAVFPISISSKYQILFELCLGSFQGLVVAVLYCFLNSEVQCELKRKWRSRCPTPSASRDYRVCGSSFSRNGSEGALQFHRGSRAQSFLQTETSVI
Summary of the method: as §1

EC50 (human PAC1 receptor) | Emax (human PAC1 receptor) | Emax (human VPAC1 receptor) | Receptor selectivity ratio VPAC1/PAC1 (human VPAC1 receptor) | EC50 (human VPAC1 receptor) | EC50 (human VPAC2 receptor) | Emax (human VPAC2 receptor) | Receptor selectivity ratio VPAC2/PAC1 (human VPAC2 receptor) | Receptor selectivity ratio VPAC2/VPAC1 (human VPAC2 receptor) | Compound
412 nM | 75% | 125% | 1.86 | 767 nM | > 2500 nM | 55% |  |  | CCC[C@H](NC(=O)[C@H](CCC(N)=O)NC(=O)[C@H](CCCCN)NC(=O)[C@H](CCCNC(=N)N)NC(=O)[C@H](Cc1ccc(O)cc1)NC(=O)[C@H](CCCNC(=N)N)NC(=O)[C@H](CO)NC(=O)[C@H](Cc1ccc(O)cc1)NC(=O)[C@H](CO)NC(=O)[C@H](CC(=O)O)NC(=O)[C@@H](NC(=O)[C@H](Cc1ccccc1)NC(=O)[C@@H](NC(=O)CCCCNC(=O)[C@H](CC(=O)O)NC(=O)[C@@H](CO)NC(=O)[C@@H](N)Cc1c[nH]cn1)[C@@H](C)CC)[C@@H](C)O)C(=O)N[C@@H](C)C(=O)N[C@H](C(=O)N[C@@H](CCCCN)C(=O)N[C@@H](CCCCN)C(=O)N[C@@H](Cc1ccc(O)cc1)C(=O)N[C@@H](CC(C)C)C(=O)N[C@@H](C)C(=O)N[C@@H](C)C(=O)N[C@H](C(=O)N[C@@H](CC(C)C)C(=O)N[C@@H](CO[C@@H]1O[C@H](CO)[C@@H](O)[C@H](O)[C@H]1O)C(N)=O)C(C)C)C(C)C [CRA 3009]
81.7 nM | 80% | 118% | 2.62 | 214 nM | 1330 nM | 107% | 16.30 | 6.22 | CCC[C@H](NC(=O)[C@H](CCC(N)=O)NC(=O)[C@H](CCCCN)NC(=O)[C@H](CCCNC(=N)N)NC(=O)[C@H](Cc1ccc(O)cc1)NC(=O)[C@H](CCCNC(=N)N)NC(=O)[C@H](CO)NC(=O)[C@H](Cc1ccc(O)cc1)NC(=O)[C@H](CO)NC(=O)[C@H](CC(=O)O)NC(=O)[C@@H](NC(=O)[C@H](Cc1ccccc1)NC(=O)[C@@H](NC(=O)CNC(=O)[C@H](CC(=O)O)NC(=O)[C@@H](CO)NC(=O)[C@@H](N)Cc1c[nH]cn1)C(C)C)[C@@H](C)O)C(=O)N[C@@H](C)C(=O)N[C@H](C(=O)N[C@@H](CCCCN)C(=O)N[C@@H](CCCCN)C(=O)N[C@@H](Cc1ccc(O)cc1)C(=O)N[C@@H](CC(C)C)C(=O)N[C@@H](C)C(=O)N[C@@H](C)C(=O)N[C@H](C(=O)N[C@@H](CC(C)C)C(=O)N[C@@H](CO[C@@H]1O[C@H](CO)[C@@H](O)[C@H](O)[C@H]1O)C(N)=O)C(C)C)C(C)C [CRA 3012]
205 nM | 79% | 122% | 0.64 | 132 nM | 2650 nM | 122% | 12.95 | 20.11 | CCC[C@H](NC(=O)[C@H](CCC(N)=O)NC(=O)[C@H](CCCCN)NC(=O)[C@H](CCCNC(=N)N)NC(=O)[C@H](Cc1ccc(O)cc1)NC(=O)[C@H](CCCNC(=N)N)NC(=O)[C@H](CO)NC(=O)[C@H](Cc1ccc(O)cc1)NC(=O)[C@H](CO)NC(=O)[C@H](CC(=O)O)NC(=O)[C@@H](NC(=O)[C@H](Cc1ccccc1)NC(=O)[C@H](C)NC(=O)CNC(=O)[C@H](CC(=O)O)NC(=O)[C@@H](CO)NC(=O)[C@@H](N)Cc1c[nH]cn1)[C@@H](C)O)C(=O)N[C@@H](C)C(=O)N[C@H](C(=O)N[C@@H](CCCCN)C(=O)N[C@@H](CCCCN)C(=O)N[C@@H](Cc1ccc(O)cc1)C(=O)N[C@@H](CC(C)C)C(=O)N[C@@H](C)C(=O)N[C@@H](C)C(=O)N[C@H](C(=O)N[C@@H](CC(C)C)C(=O)N[C@@H](CO[C@@H]1O[C@H](CO)[C@@H](O)[C@H](O)[C@H]1O)C(N)=O)C(C)C)C(C)C [CRA 3014]
25.4 nM | 93% | 109% | 1.13 | 28.6 nM | 291 nM | 105% | 11.46 | 10.17 | CCC[C@H](NC(=O)CNC(=O)[C@H](CC(=O)O)NC(=O)[C@@H](CO)NC(=O)[C@@H](N)Cc1c[nH]cn1)C(=O)N[C@@H](Cc1ccccc1)C(=O)N[C@H](C(=O)N[C@@H](CC(=O)O)C(=O)N[C@@H](CO)C(=O)N[C@@H](Cc1ccc(O)cc1)C(=O)N[C@@H](CO)C(=O)N[C@@H](CCCNC(=N)N)C(=O)N[C@@H](Cc1ccc(O)cc1)C(=O)N[C@@H](CCCNC(=N)N)C(=O)N[C@@H](CCCCN)C(=O)N[C@@H](CCC(N)=O)C(=O)N[C@@H](CCC)C(=O)N[C@@H](C)C(=O)N[C@H](C(=O)N[C@@H](CCCCN)C(=O)N[C@@H](CCCCN)C(=O)N[C@@H](Cc1ccc(O)cc1)C(=O)N[C@@H](CC(C)C)C(=O)N[C@@H](C)C(=O)N[C@@H](C)C(=O)N[C@H](C(=O)N[C@@H](CC(C)C)C(=O)N[C@@H](CO[C@@H]1O[C@H](CO)[C@@H](O)[C@H](O)[C@H]1O)C(N)=O)C(C)C)C(C)C)[C@@H](C)O [CRA 3016]
0.84 nM | 92% | 93% | 0.62 | 0.52 nM | 55.6 nM | 91% | 66.19 | 106.92 | [2H]C([2H])([2H])C([2H])(C([2H])([2H])[2H])[C@]([2H])(NC(=O)[C@H](C)NC(=O)[C@H](C)NC(=O)[C@H](CC(C)C)NC(=O)[C@H](Cc1ccc(O)cc1)NC(=O)[C@H](CCCCN)NC(=O)[C@H](CCCCN)NC(=O)[C@@H](NC(=O)[C@H](C)NC(=O)[C@H](CC(C)C)NC(=O)[C@H](CCC(N)=O)NC(=O)[C@H](CCCCN)NC(=O)[C@H](CCCNC(=N)N)NC(=O)[C@H](Cc1ccc(O)cc1)NC(=O)[C@H](CCCNC(=N)N)NC(=O)[C@H](CO)NC(=O)[C@H](Cc1ccc(O)cc1)NC(=O)[C@H](CO)NC(=O)[C@H](CC(=O)O)NC(=O)[C@@H](NC(=O)[C@H](Cc1ccccc1)NC(=O)[C@@H](NC(=O)CNC(=O)[C@H](CC(=O)O)NC(=O)[C@H](CO)NC(=O)[C@@H](N)Cc1c[nH]cn1)[C@@H](C)CC)[C@@H](C)O)C(C)C)C(=O)N[C@@H](CC(C)C)C(=O)N[C@@H](CO[C@@H]1O[C@H](CO)[C@@H](O[C@@H]2O[C@H](CO)[C@@H](O)[C@H](O)[C@H]2O)[C@H](O)[C@H]1O)C(N)=O [Compound 2LS98Cell]

Compound | EC50 (human PAC1 receptor) | Emax (human PAC1 receptor) | Emax (human VPAC1 receptor) | Receptor selectivity ratio VPAC1/PAC1 (human VPAC1 receptor) | EC50 (human VPAC1 receptor) | EC50 (human VPAC2 receptor) | Emax (human VPAC2 receptor) | Receptor selectivity ratio VPAC2/PAC1 (human VPAC2 receptor) | Receptor selectivity ratio VPAC2/VPAC1 (human VPAC2 receptor)
CC[C@H](C)[C@H](NC(=O)CNC(=O)[C@H](CC(=O)O)NC(=O)[C@H](CO)NC(=O)[C@@H](N)Cc1c[nH]cn1)C(=O)N[C@@H](Cc1ccccc1)C(=O)N[C@H](C(=O)N[C@@H](CC(=O)O)C(=O)N[C@@H](CO)C(=O)N[C@@H](Cc1ccc(O)cc1)C(=O)N[C@@H](CO)C(=O)N[C@@H](CCCNC(=N)N)C(=O)N[C@@H](Cc1ccc(O)cc1)C(=O)N[C@@H](CCCNC(=N)N)C(=O)N[C@@H](CCCCN)C(=O)N[C@@H](CCC(N)=O)C(=O)N[C@@H](CC(C)C)C(=O)N[C@@H](C)C(=O)N[C@H](C(=O)N[C@@H](CCCCN)C(=O)N[C@@H](CCCCN)C(=O)N[C@@H](Cc1ccc(O)cc1)C(=O)N[C@@H](CC(C)C)C(=O)N[C@@H](C)C(=O)N[C@@H](C)C(=O)N[C@H](C(=O)N[C@@H](CC(C)C)C(=O)N[C@@H](CO[C@@H]1O[C@H](CO[C@H]2O[C@H](CO)[C@H](O)[C@H](O)[C@H]2O)[C@@H](O)[C@H](O)[C@H]1O)C(N)=O)C(C)C)C(C)C)[C@@H](C)O [Compound 2LS98Mel] | 0.57 nM | 99% | 102% | 0.96 | 0.55 nM | 9.4 nM | 86% | 16.49 | 17.09
